Source: patent US9212178B2, “Substituted pyrimidine compounds and their use as SYK inhibitors” (Genosco, priority 2013, dated 2015)
Where two headings read alike, the source gives them in different places.

Key:
full-length human SYK = full-length human SYK (Homo sapiens (Human), UniProt P43405); assay: Inhibition of enzymatic SYK kinase activity (LANCE Ulight TK peptide); assay type: biochemical
Description: Compounds of the present invention were assayed to measure their capacity to inhibit a spleen tyrosine kinase (SYK).
Compounds of the invention were initially diluted to 10 mM in 100% DMSO (CALBIOCHEM™) for storage and made into kinase buffer solution to create a compound concentration ranging from 1 uM and 10 uM. Serial dilutions of compounds of the invention were dispensed into a 96-well plate (GREINER BIOSCIENCES™) at 6 μL each. Purified full-length human SYK (CARNA BIOSCIENCES™) were diluted in kinase buffer and added to the compound solutions and pre-incubated for 30 minutes at room temperature. […] The reaction mixture was incubated for 1 hour. Following the incubation, the stop solution made with EDTA, water, and Lance detection buffer ([…]™) was added (12 μL each) to stop phosphorylation.

THP-1 cells = assay: SYK-dependent TNF-α release assay (IgG stimulation), ELISA; assay type: cell-based; details: THP-1 cells on human IgG-coated plate, 18 hours; read-out: TNF-α release inhibition, IgG stimulation IC50
Description: In order to address cellular potency of Compounds of Formula (I), TNF-a production was measured on treatment of a series of concentration of SYK inhibitor in THP-1 cells.
For SYK-dependent TNF-α release assay (i.e., via IgG stimulation), THP-1 cells derived from human monocytic cells were obtained from the American Type Culture Collection (ATCC, Manassas, Va.). This cell line was maintained with a Roswell Park Memorial Institute (RPMI) medium (GIBCO) containing 10% fetal bovine serum (FBS; GIBCO) and 0.05 mM solution of 2-mercaptoethanol. The THP-1 cells were seeded at 1×10^5 cells/100 μL/well into human IgG (10 ng/well, INVITROGEN)-coated 96 well culture plate, and serially diluted compound was then added. After an 18 hours of incubation period at 37° C., supernatants were collected for the determination of the TNF-α level by enzyme-linked immunosorbent assay (ELISA), and the remaining cells were subjected to an MTT (yellow tetrazolium salt) assay to determine the cytotoxic effects of the compound. The IC50 value of the test compound was calculated at Gradpad Prism 5 unless otherwise specified.

[1] = tested on: Collagen-induced arthritis in DBA/1J mice; assay: Collagen-induced arthritis (CIA) mouse model, macroscopic paw scoring; assay type: in vivo; details: 30 mg/kg/day once daily oral gavage, vehicle = 100.0
Description: CIA mouse model was induced in DBA/1J mice (Japan Charles River Breeding Laboratories, Kanagawa, Japan) with 5 to 6 weeks of age. Animals were maintained at a temperature of 20±5° C. and a relative humidity of 40˜60%.
Bovine type II collagen (CII, 2 mg/ml dissolved in 0.05 M acetic acid, Chondrex, Redmond, Wash.) was emulsified in equal volumes of Freund's complete adjuvant (4 mg/ml of Mycobacterium tuberculosis strain H37Ra; Chondrex, Redmond, Wash.). On day 0, mice were immunized intradermally at the base of the tail with 100 μg bovine type II collagen emulsified in Freund's complete adjuvant. On day 21, all mice were boosted with an intraperitoneal injection of 100 μg type II collagen.
These compounds were dissolved in NMP/20% cyclodextrin/PEG400 5:45:50 solution and filtered by […] membrane filter. All the test substances were administered once daily at 30 mg/kg/day by oral gavage for 3 weeks.
The gradual onset of arthritis usually starts approximately 3 weeks after initial immunization. The progression of CIA was evaluated by the macroscopic scoring of paws at intervals of 3 days. The edema and swelling of each paw was scored visually as was described previously, using a scale of 0-4, where 0=no visible abnormalities, 1=mild redness or swelling of the wrist or up to three inflamed digits, 2=more than three inflamed digits or moderate redness and swelling of the ankle or wrist, 3=severe ankle and wrist inflammation, 4=extensive ankle and wrist inflammation including all digits. Therefore, the score of each mouse was calculated for the four limbs (maximum total score of 16 for each mouse) (Courtenay J S, Dallman M J, Dayan A D, et al., Immunisation against heterologous type II collagen induces arthritis in mice, Nature, 1980, 283, 666-668)
Arthritis was considered to be present if the score was >2. The blind scoring was performed by four independent observers. In this study, data was calculated by following equation. […] Results

[2] = tested on: Human peripheral CD19+ B cells; assay: Cellular SLE model: immunoglobulin production in human peripheral B cells stimulated via TLR9 (ODN2006); assay type: cell-based; details: human B cell, ODN2006 and IL-2, 6 days
From the text: Systemic lupus erythematosus (SLE) is a chronic inflammatory autoimmune disease and can affect several organs and systems. It is characterized by high production of autoantibodies against nuclear compounds. TLR7/8/9 are responsible for nucleic acid recognition and they trigger proinflammatory responses through activation of […] and Type I IFN production, making a bridge between the innate and the adaptive immune systems. TLR9 signaling pathway was adopted for cellular SLE model using human peripheral B cells to test potency of SYK inhibitor of Formula (I).
Human peripheral CD19+ B cells from an adult healthy donor were purchased from Sanguine Biosciences (Sherman Oaks, Calif.). B cells were cultured in 96-well plates with complete RPMI 1640 medium (Corning, Tewksbury, Mass.) supplemented with 10% heat-inactivated FBS (Life Technologies, Grand Island, N.Y.) and penicillin/streptomycin (Corning). B cells were stimulated with 1 μM ODN2006 (InvivoGen, San Diego, Calif.) and 20 ng/ml IFNα (PBL Assay Science, Piscataway, N.J.) for 3 days for toll-like receptor-9 (TLR-9)-mediated B cell growth. To differentiate naïve B cells into plasma cells, peripheral B cells were differentiated with 50 nM ODN2006 and 10 ng/ml IL-2 in a presence of various concentrations of SYK inhibitors for 6 days. Culture supernatants were collected and IgM and IgG production was measured using human IgM or IgG ELISA kit (BioLegend).

SUDHL4 = assay: DLBCL cell proliferation, ATPLite assay; assay type: cell-based, human; details: SUDHL4, 72 hours; read-out: Inhibition of proliferation IC50
From the text: (§1) Several lines of evidence support the role of B cell receptor (BCR)-mediated survival signals in certain B cell malignancies such as non-Hodgkin lymphomas (NHL) including diffuse large B cell lymphoma (DLBCL). B cell receptor (BCR) signaling pathway components represent promising treatment targets in diffuse large B cell lymphoma (DLBCL) and additional B cell tumors. In order to address whether SYK inhibitor of Compounds of Formula (I), cellular viability of diffuse large B cell lymphoma (DLBCL) cells was measured on treatment of a series of concentration of SYK inhibitor.
(§2) The DLBCL cells, SUDHL4, SUDHL6 and OCI-LY1 […] were obtained from the American Type Culture Collection (ATCC, Manassas, Va., USA) or DSMZ (Braunschweig, Germany). […] The SUDHL4, SUDHL6 and OCI-LY1 cells were seeded at 1×10^5 cells/100 μL/well into 96 well culture plate, and serially diluted compound was then added. After an 72 hours of incubation period at 37° C., cells were subjected to an ATPLite assay (PerkinElmer) to determine the cytotoxic effects of the compound. The IC50 value of the test compound was calculated at Gradpad Prism 5 unless otherwise specified.

OCI-LY1 = assay: DLBCL cell proliferation, ATPLite assay; assay type: cell-based, human; details: OCI-LY1, 72 hours; read-out: Inhibition of proliferation IC50
From the text: as §1, §2

SUDHL6 = assay: DLBCL cell proliferation, ATPLite assay; assay type: cell-based, human; details: SUDHL6, 72 hours; read-out: Inhibition of proliferation IC50
From the text: as §1, §2

[3] = ATP at Km (15 uM), 30 min pre-incubation

For CCn1cc(C(=O)C2CC2)c2cc(Nc3nccc(-n4cc(CN5C[C@H](O)CO5)c(C)n4)n3)ccc21 [Compound 6, (S)-cyclopropyl(1-ethyl-5-(4-(4-((4-hydroxyisoxazolidin-2-yl)methyl)-3-methyl-1H-pyrazol-1-yl)pyrimidin-2-ylamino)-1H-indol-3-yl)methanone], the IC50 (full-length human SYK; [3]) was 4.69 nM, the IC50 (THP-1 cells) was 57 nM and the “CIA index (arthritic score of test group / vehicle group x 100)” value ([1]; day 4) was 0.0 ± 0.0%. The “CIA index (arthritic score of test group / vehicle group x 100)” value ([1]; day 7) was 10.9 ± 8.9%, the “CIA index (arthritic score of test group / vehicle group x 100)” value ([1]; day 10) was 32.3 ± 11.5% and the “CIA index (arthritic score of test group / vehicle group x 100)” value ([1]; day 13) was 45.3 ± 10.5%. The “CIA index (arthritic score of test group / vehicle group x 100)” value ([1]; day 17) was 53.3 ± 7.4% and the “CIA index (arthritic score of test group / vehicle group x 100)” value ([1]; day 19) was 63.4 ± 4.0%.

Cc1nn(-c2ccnc(Nc3ccc4c(c3)c(S(C)(=O)=O)nn4C)n2)cc1CN1C[C@H](O)CO1 [Compound 26, (S)-2-((3-methyl-1-(2-(1-methyl-3-(methylsulfonyl)-1H-indazol-5-ylamino)pyrimidin-4-yl)-1H-pyrazol-4-yl)methyl)isoxazolidin-4-ol] was tested, and the IC50 (full-length human SYK; [3]) was 87.1 nM and the IC50 (THP-1 cells) was 1060 nM.

For Cc1nn(-c2ccnc(Nc3ccc4c(c3)c(C(=O)C3CC3)cn4S(C)(=O)=O)n2)cc1CN1C[C@H](O)CO1 [Compound 27, (S)-cyclopropyl(5-(4-(4-((4-hydroxyisoxazolidin-2-yl)methyl)-3-methyl-1H-pyrazol-1-yl)pyrimidin-2-ylamino)-1-(methylsulfonyl)-1H-indol-3-yl)methanone], the IC50 (full-length human SYK; [3]) was 5.89 nM and the IC50 (THP-1 cells) was 43 nM.

With CCn1cc(C(=O)C2CC2)c2cc(Nc3nccc(-n4cc(C)c(CN5C[C@H](O)CO5)c4)n3)ccc21 [Compound 29, (S)-cyclopropyl(1-ethyl-5-(4-(3-((4-hydroxyisoxazolidin-2-yl)methyl)-4-methyl-1H-pyrrol-1-yl)pyrimidin-2-ylamino)-1H-indol-3-yl)methanone] the IC50 (full-length human SYK) was 69.5 nM and the IC50 (THP-1 cells) was 70 nM.

Work on O=C(c1cn(CCF)c2ccc(Nc3nccc(-n4cc(CN5C[C@H](O)CO5)cn4)n3)cc12)C1CC1 [Compound 32, (S)-cyclopropyl(1-(2-fluoroethyl)-5-(4-(4-((4-hydroxyisoxazolidin-2-yl)methyl)-1H-pyrazol-1-yl)pyrimidin-2-ylamino)-1H-indol-3-yl)methanone] yielded an IC50 (full-length human SYK; [3]) of 3.52 nM and an IC50 (THP-1 cells) of 53 nM.

With O=C(c1cn(CC(F)F)c2ccc(Nc3nccc(-n4cc(CN5C[C@H](O)CO5)cn4)n3)cc12)C1CC1 [Compound 33, (S)-cyclopropyl(1-(2,2-difluoroethyl)-5-(4-(4-((4-hydroxyisoxazolidin-2-yl)methyl)-1H-pyrazol-1-yl)pyrimidin-2-ylamino)-1H-indol-3-yl)methanone] the IC50 (full-length human SYK; [3]) was 5.34 nM and the IC50 (THP-1 cells) was 60 nM.

O=C(c1cn(CC(F)(F)F)c2ccc(Nc3nccc(-n4cc(CN5C[C@H](O)CO5)cn4)n3)cc12)C1CC1 [Compound 34, (S)-cyclopropyl(5-(4-(4-((4-hydroxyisoxazolidin-2-yl)methyl)-1H-pyrazol-1-yl)pyrimidin-2-ylamino)-1-(2,2,2-trifluoroethyl)-1H-indol-3-yl)methanone] showed an IC50 (full-length human SYK; [3]) of 5.8 nM and an IC50 (THP-1 cells) of 55 nM.

For COc1cc(Nc2ncc(F)c(Nc3ccc4c(n3)NC(=O)C(C)(C)O4)n2)cc(OC)c1OC [Compound R406, reference compound], the IC50 ([2]; read-out: Inhibition of immunoglobulin production, IgG IC50) was 369 nM, the IC50 ([2]; read-out: Inhibition of immunoglobulin production, IgM IC50) was 180 nM and the IC50 (SUDHL4) was 3670 nM. For the same compound, the IC50 (OCI-LY1) was 3890 nM, the IC50 (SUDHL6) was 3230 nM and the IC50 (THP-1 cells) was 217 nM.

In the case of COc1cc(Nc2ncc(F)c(Nc3ccc4c(n3)N(COP(=O)(O)O)C(=O)C(C)(C)O4)n2)cc(OC)c1OC [Compound R788, reference compound], the “CIA index (arthritic score of test group / vehicle group x 100)” value ([1]; day 4) is reported as 36.7 ± 22.7%, the “CIA index (arthritic score of test group / vehicle group x 100)” value ([1]; day 7) is reported as 82.2 ± 45.2% and the “CIA index (arthritic score of test group / vehicle group x 100)” value ([1]; day 10) is reported as 80.3 ± 27.3%. The “CIA index (arthritic score of test group / vehicle group x 100)” value ([1]; day 13) was 97.8 ± 25.0%, the “CIA index (arthritic score of test group / vehicle group x 100)” value ([1]; day 17) was 73.3 ± 11.2% and the “CIA index (arthritic score of test group / vehicle group x 100)” value ([1]; day 19) was 72.1 ± 11.2%.

In the case of “cyclopropyl(1-(2-fluoroethyl)-5-(4-(4-(((S)-4-hydroxyisoxazolidin-2-yl)methyl)-3-methyl-1H-pyrazol-1-yl)pyrimidin-2-ylamino)indolin-3-yl)methanone [Compound 24]”, the IC50 (full-length human SYK; [3]) is reported as 3.1 nM and the IC50 (THP-1 cells) is reported as 47 nM.
